Measured values taken from publication PMC8481502, “Bovine NK-lysin peptides exert potent antimicrobial activity against multidrug-resistant Salmonella outbreak isolates” (Scientific Reports, 2021).
Peptide text beside a SMILES is read from it.

Key:
[1] = test system: MDR Salmonella enterica serovar I 4,[5],12:i:- strain USDA15WA-1 (SX238); assay: Growth curve assay (automated reader, OD600) with isolate SX238; format: cell-based; settings: for growth inhibition activity on SX238 at highest tested concentration: up to 20 µM peptide, 24 h growth curve; for time at which bacteria recovered and grew after initial inhibition: SX238, LB broth
Protocol: (§1) Overnight cultures of a MDR Salmonella outbreak isolate (SX238) and one non-MDR Salmonella isolate (SB377) were diluted 1:1000 in LB broth to obtain approximately 1 × 10^6 colony forming units per milliliter (CFU/mL). One hundred microliters of each diluted culture were transferred into honeycomb® 100-well plates (~ 1 × 10^5 CFU/well) (Growth Curves USA, Piscataway, NJ). Bovine NK-lysin peptides (NK1, NK2A, NK2B, and NK2C) were added at the final peptide concentrations of 20, 10, 5, 3.5, 2 µM in PBS (total volume = 20 µL) with a final bacterial-peptide volume of 120 µL/well. The plates were covered with lids and placed in an automated growth curve reader (Bioscreen C; Growth Curves USA, Piscataway, NJ) which was programmed for continuous shaking at 37 °C, and optical density readings at 600 nm (OD600) were recorded every hour for 24 h. […] The optical density data were analyzed, and growth curve graphs for each isolate were generated using MS Excel. […] Twenty-four-hour growth curve assays for Salmonella isolate SX238 were repeated at different bacterial CFU (~ 1 × 10^5, 1 × 10^6, 1 × 10^7, and 1 × 10^8 CFU/mL) with NK2A (5 µM and 10 µM). Sc-NK2A was included as a control for the assay.

[2] = test system: Salmonella enterica serovar Typhimurium isolate UK-1 (SB377, non-MDR); assay: Growth curve assay (automated reader, OD600) with isolate SB377; format: cell-based; settings: for growth inhibition activity on SB377 at highest tested concentration: up to 20 µM peptide, 24 h growth curve; for time at which bacteria recovered and grew after initial inhibition: SB377, LB broth
Protocol: as §1

[3] = test system: MDR Salmonella enterica serovar Typhimurium DT193 strain 1434 (SX231); assay: Growth curve assay (automated reader, OD600) with isolate SX231; format: cell-based; settings: 20 µM peptide, LB broth, 24 h growth curve
[4] = test system: MDR Salmonella enterica serovar Heidelberg (SB395); assay: Growth curve assay (automated reader, OD600) with isolate SB395; format: cell-based; settings: 20 µM peptide, LB broth, 24 h growth curve
[5] = test system: Swiss-Webster mice; assay: Mouse study of in vivo cytotoxic effects; settings: single intraperitoneal dose 100 µg (~ 4 mg/kg) in PBS, female Swiss-Webster mice, 5 per cage, 2-week observation
Protocol: To determine whether NK-lysin peptides show in vivo cytotoxic effects, a mouse study was conducted. Briefly, thirty 5–6 weeks old female Swiss-Webster mice (Envigo, Indianapolis, IN) were housed in groups in six individual cages (5 mice per cage) in ABSL2 facilities with ad libitum access to food and water in a 12-h light:dark cycle. After 1 week of acclimation, mice were intraperitoneally injected with a single dose of 100 µg of NK-lysin peptides (NK1, NK2A, NK2B, NK2C, or Sc-NK2A, ~ 4 mg/kg of body weight) in PBS (1 mL). Mice injected with PBS (1 mL) served as a negative control for the study. Mice were daily observed for any signs of toxicity and were euthanized 2 weeks post peptide administration.

[6] = test system: Salmonella SX238; assay: LIVE/DEAD BacLight staining, confocal laser scanning microscopy; format: cell-based, Salmonella enterica serovar I 4,[5],12:i:-; settings: 5 µM peptide
Protocol: The viabilities of bacteria following incubation with NK2A and Sc-NK2A were determined using culture-independent (function of the membrane integrity of the bacteria) staining technique by using LIVE/DEAD™ BacLight™ bacterial viability kit (for microscopy) as described previously. Bacteria in each treatment was visualized using a Nikon A1R + laser scanning confocal microscope (Nikon Instruments, Melville, NY) as described previously. Images were obtained using plan Apo 60 × objective lens (oil) at numerical aperture 1.4. Final figures were prepared using Adobe Photoshop Elements 11.

[7] = test system: Salmonella SX238 outer- and inner-membranes; assay: Transmission electron microscopy of peptide-treated bacteria; format: cell-based, Salmonella enterica serovar I 4,[5],12:i:-; settings: 20 µM peptide, 1 h at 37 °C, ~1 × 10^7 CFU/well in PBS
Protocol: Morphological changes of bacteria following incubation with NK2A and Sc-NK2A peptides were studied by TEM. An overnight culture of Salmonella (isolate SX238) was centrifuged and resuspended in PBS. One hundred microliters of bacterial suspension were placed in a Honeycomb plate (~ 1 × 10^7 CFU/well) and NK2A, Sc-NK2A (20 µM), and PBS were added and incubated at 37 °C with continuous shaking for 1 h. The bacterial suspensions were mixed with an equal volume of 3% glutaraldehyde in 0.1 M cacodylate buffer (pH 7.4) and processed for TEM as described before. Sections were examined with a FEI Tecnai G2 Biotwin (FEI Co., Hillboro, OR) TEM and images were taken with Advanced Microscopy Technologies (AMT Inc., Danvers, […]) imaging camera.

[8] = test system: MDR Salmonella outbreak isolate SX238 cytoplasmic membrane; assay: Propidium iodide (PI) uptake assay; format: cell-based, Salmonella enterica serovar I 4,[5],12:i:-
Protocol: The kinetics of NK2A-induced damage to Salmonella cell membranes were evaluated using PI uptake assay as described previously. Briefly, an overnight culture of MDR Salmonella outbreak isolate SX238 was centrifuged, washed with PBS, and resuspended in PBS. Ninety microliters of bacterial suspension was transferred to a 96-well opaque plate (~ 1 × 10^7 CFU/well), mixed with 10 µL of PI (final concentration = 3 µM) and incubated at 37 °C for 5 min. PBS, polymyxin B (2, 4, 25, 50 and 100 µg/mL), NK2A or Sc-NK2A (both at 2 and 5 µM) were added and PI fluorescent intensities in each well was continuously measured (15 s intervals, flex mode) using a FlexStation 3 multi-mode (fluorescent) microplate reader (Molecular Devices LLC., San Jose, CA) for up to 6 h. The excitation and emission wavelengths for PI was set up at 530 nm and 620 nm, respectively.

[9] = test system: Salmonella isolates (MDR and non-MDR); assay: Growth curve assay, statements over all Salmonella isolates; format: cell-based; settings: 24 h incubation in LB broth, MDR and non-MDR isolates
Protocol: as §1

CC[C@H](C)[C@H](NC(=O)[C@H](CCSC)NC(=O)[C@H](CS)NC(=O)[C@H](CCCNC(=N)N)NC(=O)[C@H](CCC(=O)O)NC(=O)[C@H](CCCCN)NC(=O)[C@H](CCCCN)NC(=O)[C@H](CS)NC(=O)[C@H](CCCCN)NC(=O)[C@H](CO)NC(=O)[C@H](CCCCN)NC(=O)CNC(=O)[C@@H](NC(=O)[C@H](CC(C)C)NC(=O)[C@H](CCCNC(=N)N)NC(=O)[C@@H](NC(=O)[C@@H](NC(=O)[C@H](C)NC(=O)[C@H](CC(C)C)NC(=O)[C@H](CO)NC(=O)[C@H](CC(C)C)NC(=O)[C@H](CO)NC(=O)[C@@H](NC(=O)[C@H](Cc1ccccc1)NC(=O)[C@@H](N)CCSC)C(C)C)[C@@H](C)O)[C@@H](C)CC)[C@@H](C)O)C(=O)N[C@@H](CC(C)C)C(=O)N[C@@H](CCCCN)C(=O)N[C@@H](CCCNC(=N)N)C(=O)N[C@@H](CCCNC(=N)N)C(=O)N[C@H](C(=O)O)C(C)C [Sc-NK2A] (H-MFVSLSLATIRLTGKSKCKKERCMILKRRV-OH; N-terminus and C-terminus assumed)
growth inhibition of SX238 at the lowest bacterial concentration ([1]; 10 µM peptide, 10^4 CFU/well): failed to inhibit bacterial growth | growth inhibition activity on SX238 at highest tested concentration ([1]; LB broth): failed to show Salmonella growth inhibition activity | growth inhibition activity on SB377 at highest tested concentration ([2]; LB broth): failed to show Salmonella growth inhibition activity | growth inhibition activity on SX231 at highest tested concentration [3]: failed to show Salmonella growth inhibition activity | growth inhibition activity on SB395 at highest tested concentration [4]: failed to show Salmonella growth inhibition activity | signs of toxicity or death [5]: did not show signs of toxicity or death | live/dead staining result (SYTO 9 / PI) [6]: did not have detectable antimicrobial activity | ultrastructural changes to bacterial membranes [7]: did not cause detectable damage to the bacterial membranes | PI uptake signal ([8]; 5 µM peptide, 30 min, ~1 × 10^7 CFU/well in PBS, 3 µM PI): did not show PI uptake signals

TVIEAASKVCGKMGPLKGLCKSITKRFLRR [NK2B, 30-mer peptide corresponding to functional region helices 2-loop-3 of bovine NK-lysin NK2B]
peptide concentration at which growth of SX238 was completely inhibited ([1]; LB broth, ~1 × 10^5 CFU/well, 37 °C, OD600 every hour for 24 h, tested 2-20 µM, at least three experiments): ≥ 5 µM | peptide concentration at which growth of SB377 was completely inhibited ([2]; LB broth, ~1 × 10^5 CFU/well, 37 °C, OD600 every hour for 24 h, tested 2-20 µM): ≥ 5 µM | concentrations able to inhibit growth of Salmonella during 24 h [9]: 3.5 to 5 µM | signs of toxicity or death [5]: did not show signs of toxicity or death

TVIEEASKVCSKMRLLKGLCKSIMKKFLRT [NK2C, 30-mer peptide corresponding to functional region helices 2-loop-3 of bovine NK-lysin NK2C]
time at which bacteria recovered and grew after initial inhibition ([1]; 10 µM peptide): approximately 7 h | time at which bacteria recovered and grew after initial inhibition ([1]; 20 µM peptide): ~20 h | time at which bacteria recovered and grew after initial inhibition ([2]; 10 µM peptide): approximately 7 h | time at which bacteria recovered and grew after initial inhibition ([2]; 20 µM peptide): ~20 h | signs of toxicity or death [5]: did not show signs of toxicity or death

VIIHVTSKVCSKMGLWSILCNQMMKKYLNR [NK1, 30-mer peptide corresponding to functional region helices 2-loop-3 of bovine NK-lysin NK1]
growth inhibition activity on SX238 at highest tested concentration ([1]; LB broth): did not show any Salmonella SX238 and SB377 growth inhibition activity | growth inhibition activity on SB377 at highest tested concentration ([2]; LB broth): did not show any Salmonella SX238 and SB377 growth inhibition activity | signs of toxicity or death [5]: did not show signs of toxicity or death

polymyxin B [reference compound]
PI uptake signal ([8]; polymyxin B 2-100 µg/mL, 6 h observation): No PI uptake signal was observed | PI uptake signal ([8]; polymyxin B up to 100 µg/mL, 30 min observation): No PI uptake signal was observed
